pIC50: −log10 of the molar value. Some results are limits rather than exact numbers.

The test concerns the target NaV1.8 (Homo sapiens, UniProt Q9Y5Y9). In words: Activity against NaV 1.8 channel (Table 3), optical membrane potential / electrophysiology assays. It is filed as cell-based. Here is the method: Compounds of the invention are useful as antagonists of voltage-gated sodium ion channels. Antagonist properties of test compounds were assessed as follows. Cells expressing the NaV of interest were placed into microtiter plates. After an incubation period, the cells were stained with fluorescent dyes sensitive to the transmembrane potential. The test compounds were added to the microtiter plate. The cells were stimulated with either a chemical or electrical means ti evoke a NaV dependent membrane potential change from unblocked channels, which was detected and measured with trans-membrane potential-sensitive dyes. Antagonists were detected as a decreased membrane potential response to the stimulus. The optical membrane potential assay utilized voltage-sensitive FRET sensors described by Gonzalez and Tsien (See, Gonzalez, J. E. and R. Y. Tsien (1995) “Voltage sensing by fluorescence resonance energy transfer in single cells” Biophys J 69(4): 1272-80, and Gonzalez, J. E. and R. Y. Tsien (1997) “Improved indicators of cell membrane potential that use fluorescence resonance energy transfer” Chem Biol 4(4): 269-77) in combination with instrumentation for measuring fluorescence changes such as the Voltage/Ion Probe Reader (VIPR®) (See, Gonzalez, J. E., K. Oades, et al. (1999) “Cell-based assays and instrumentation for screening ion-channel targets” Drug Discov Today 4(9): 431-439).
The following is an example of how NaV1.3 inhibition activity is measured using the optical membrane potential method #2. Other subtypes are performed in an analogous mode in a cell line expressing the NaV of interest.
HEK293 cells stably expressing NaV1.3 are plated into 96-well microtiter plates. After an appropriate incubation period, the cells are stained with the voltage sensitive dyes CC2-DMPE/DiSBAC2(3) as follows.
2X CC2-DMPE=20 μM CC2-DMPE: 10 mM CC2-DMPE is vortexed with an equivalent volume of 10% pluronic, followed by vortexing in required amount of HBSS containing 10 mM HEPES. Each cell plate will require 5 mL of 2X CC2-DMPE. 50 μL of 2X CC2-DMPE is to wells containing washed cells, resulting in a 10 μM final staining concentration. The cells are stained for 30 minutes in the dark at RT.
2X DISBAC2(3) with ABSC1=6 μM DISBAC2(3) and 1 mM ABSC1: The required amount of 10 mM DISBAC2(3) is added to a 50 ml conical tube and mixed with 1 μL 10% pluronic for each mL of solution to be made and vortexed together. Then HBSS/HEPES is added to make up 2X solution. Finally, the ABSC1 is added.
The 2X DiSBAC2(3) solution can be used to solvate compound plates. Note that compound plates are made at 2X drug concentration. Wash stained plate again, leaving residual volume of 50 μL. Add 50 uL/well of the 2X DiSBAC2(3) w/ABSC1. Stain for 30 minutes in the dark at RT.
The electrical stimulation instrument and methods of use are described in ION Channel Assay Methods PCT/US01/21652, herein incorporated by reference. The instrument comprises a microtiter plate handler, an optical system for exciting the coumarin dye while simultaneously recording the coumarin and oxonol emissions, a waveform generator, a current- or voltage-controlled amplifier, and a device for inserting electrodes in well. Under integrated computer control, this instrument passes user-programmed electrical stimulus protocols to cells within the wells of the microtiter plate.
Assay Protocol • 1. Insert or use electrodes into each well to be assayed. • 2. Use the current-controlled amplifier to deliver stimulation wave pulses for 3 s. Two seconds of pre-stimulus recording are performed to obtain the un-stimulated intensities. Five seconds of post-stimulation recording are performed to examine the relaxation to the resting state.
Data are analyzed and reported as normalized ratios of background-subtracted emission intensities measured in the 460 nm and 580 nm channels. Background intensities are then subtracted from each assay channel. […]

Broadly, the pIC50 is the negative decadic logarithm of the IC50, by convention in mol/L. Take `NS(=O)(=O)c1cccc(NC(=O)c2ccc3ccccc3c2)c1` [Compound 62]: the pIC50 was under 5.00.

Consider `NS(=O)(=O)c1cccc(NC(=O)c2ccccc2Oc2ccccc2)c1` [Compound 63], for which the pIC50 was 5.00 to 5.70.

Consider `CCOc1ccc(C(=O)Nc2cccc(S(N)(=O)=O)c2)cc1` [Compound 64], for which the negative logarithm of the IC50 (pIC50) is under 5.00.

For the molecule `CCc1cc(C(=O)Nc2cccc(S(N)(=O)=O)c2)ccc1-c1ccccc1` [Compound 65], the negative-log IC50 (pIC50) was under 5.00.

Consider `CCCc1ccc(C(=O)Nc2cccc(S(N)(=O)=O)c2)cc1` [Compound 66], for which the negative-log IC50 (pIC50) was under 5.00.

As to `CC(C)(C)c1ccc(C(=O)Nc2cccc(S(N)(=O)=O)c2)cc1` [Compound 67], the negative-log IC50 (pIC50) was over 5.70.

In the case of `NS(=O)(=O)c1cccc(NC(=O)c2ccccc2NCc2ccccc2)c1` [Compound 68], the negative-log IC50 (pIC50) is under 5.00.

Consider `Cc1ccccc1C(=O)Nc1cccc(S(N)(=O)=O)c1` [Compound 69], for which the pIC50 is under 5.00.

`NS(=O)(=O)c1cccc(NC(=O)c2ccc(Cl)cc2Br)c1` [Compound 70]: the pIC50 was under 5.00.

As to `NS(=O)(=O)c1cccc(NC(=O)c2ccccc2CCc2ccccc2)c1` [Compound 71], the pIC50 is 5.00 to 5.70.

On to `CN(C)S(=O)(=O)c1cccc(NC(=O)c2ccc(C(C)(C)C)cc2)c1` [Compound 72], for which the pIC50 was under 5.00.

Regarding `NS(=O)(=O)c1cccc(NC(=O)c2cccc(-n3cccn3)c2)c1` [Compound 73], the negative logarithm of the IC50 (pIC50) was under 5.00.

As for `NS(=O)(=O)c1cccc(NC(=O)c2cccc(OC(F)(F)F)c2)c1` [Compound 74], the pIC50 was under 5.00.

For `Cc1ccc(-c2ccccc2C(=O)Nc2cccc(S(N)(=O)=O)c2)cc1` [Compound 75], the pIC50 is 5.00 to 5.70.

As to `CC(C)COC(=O)NC1CCN(c2ccccc2C(=O)Nc2cccc(S(N)(=O)=O)c2)CC1` [Compound 76], the pIC50 is under 5.00.

Turning to `COc1cc(C)ccc1C(=O)Nc1cccc(S(N)(=O)=O)c1` [Compound 77], the pIC50 was under 5.00.

Turning to `CC(C)(C)c1ccc(C(=O)Nc2cccc(S(N)(=O)=O)c2)c(Oc2ccc(F)cc2)c1` [Compound 78, 2-(4-Fluorophenoxy)-4-tert-butyl-N-(3-(aminosulfonyl)phenyl)benzamide], the pIC50 was over 5.70.

Take `CC(C)(C)c1ccc(C(=O)Nc2ccc(Cl)c(S(N)(=O)=O)c2)cc1` [Compound 79]: the negative logarithm of the IC50 (pIC50) is over 5.70.

As for `CC(C)Cc1ccc(C(=O)Nc2cccc(S(N)(=O)=O)c2)cc1` [Compound 80], the pIC50 is over 5.70.

`NS(=O)(=O)c1cccc(NC(=O)c2ccc(C(F)(F)F)cc2C(F)(F)F)c1` [Compound 81]: the pIC50 was under 5.00.

On to `NS(=O)(=O)c1cccc(NC(=O)c2ccccc2Nc2cccc(-c3nnn[nH]3)c2)c1` [Compound 82], for which the pIC50 was under 5.00.

With `NS(=O)(=O)c1cccc(NC(=O)c2ccccc2C2CCCCC2)c1` [Compound 83, 2-Cyclohexyl-N-(3-(aminosulfonyl)phenyl)benzamide], the pIC50 is over 5.70.

In the case of `COc1cccc(Oc2ccccc2C(=O)Nc2cccc(S(N)(=O)=O)c2)c1` [Compound 84], the pIC50 was 5.00 to 5.70.

On to `COc1ccccc1C(=O)Nc1cccc(S(N)(=O)=O)c1` [Compound 85], for which the pIC50 is under 5.00.

`NS(=O)(=O)c1cccc(NC(=O)c2cccc(N3CCNC3=O)c2)c1` [Compound 86]: the pIC50 was under 5.00.

For `CC(C)(C)c1ccc(C(=O)Nc2cc(S(N)(=O)=O)ccc2Cl)cc1` [Compound 87], the pIC50 is under 5.00.

As to `COc1ccc(Oc2cc(C(C)(C)C)ccc2C(=O)Nc2cccc(S(N)(=O)=O)c2)cc1` [Compound 88], the negative-log IC50 (pIC50) is over 5.70.

Turning to `NS(=O)(=O)c1cccc(NC(=O)c2ccccc2Oc2cccc(N3CCOCC3)c2)c1` [Compound 89], the pIC50 was under 5.00.

On to `CN(C(=O)c1ccc(C(C)(C)C)cc1)c1cccc(S(N)(=O)=O)c1` [Compound 90, 4-tert-Butyl-N-methyl-N-(3-(aminosulfonyl)phenyl)benzamide], for which the pIC50 was under 5.00.

Consider `Cc1ccccc1Oc1ccccc1C(=O)Nc1cccc(S(N)(=O)=O)c1` [Compound 91], for which the negative-log IC50 (pIC50) was over 5.70.

As for `NS(=O)(=O)c1cccc(NC(=O)c2ccccc2N2CCOCC2)c1` [Compound 92], the negative logarithm of the IC50 (pIC50) was under 5.00.

In the case of `CC(C)(C)c1ccc(C(=O)Nc2cccc(S(N)(=O)=O)c2)c(Br)c1` [Compound 93], the pIC50 is over 5.70.

`NS(=O)(=O)c1cccc(NC(=O)c2ccccc2-c2ccccc2)c1` [Compound 94]: the negative logarithm of the IC50 (pIC50) was under 5.00.

As for `NS(=O)(=O)c1cccc(NC(=O)c2ccccc2Oc2ccc(F)cc2)c1` [Compound 95], the pIC50 is over 5.70.

On to `CCCCc1ccc(C(=O)Nc2cccc(S(N)(=O)=O)c2)cc1` [Compound 96], for which the pIC50 was under 5.00.

Take `CC(C)(C)c1ccc(C(=O)Nc2cccc(S(N)(=O)=O)c2)c(Oc2ccccc2N2CCCCC2)c1` [Compound 97]: the negative-log IC50 (pIC50) was over 5.70.

Take `CC(C)(C)c1ccc(C(=O)Nc2cccc(S(N)(=O)=O)c2)c(Oc2ccccc2N2CCOCC2)c1` [Compound 98]: the pIC50 is over 5.70.

Take `Cc1ccc(Oc2cc(C(C)(C)C)ccc2C(=O)Nc2cccc(S(N)(=O)=O)c2)c(C)n1` [Compound 99]: the negative-log IC50 (pIC50) was over 5.70.

Take `NS(=O)(=O)c1cccc(NC(=O)c2ccc(C(F)(F)F)cc2O)c1` [Compound 100]: the pIC50 was under 5.00.

For the molecule `CC(C)(C)c1ccc(C(=O)Nc2cccc(S(N)(=O)=O)c2)c(Oc2ccc(F)cc2Cl)c1` [Compound 101], the negative-log IC50 (pIC50) was over 5.70.

In the case of `CC(=O)c1ccccc1Oc1cc(C(C)(C)C)ccc1C(=O)Nc1cccc(S(N)(=O)=O)c1` [Compound 102], the pIC50 is 5.00 to 5.70.

In the case of `CCOc1cc(C(C)(C)C)ccc1C(=O)Nc1cccc(S(N)(=O)=O)c1` [Compound 103], the pIC50 is over 5.70.

Regarding `CC(C)(C)c1ccc(C(=O)Nc2cccc(S(N)(=O)=O)c2)c(Oc2ccccc2C(F)(F)F)c1` [Compound 104], the pIC50 was over 5.70.

Consider `CC(C)(C)c1ccc(C(=O)Nc2cccc(S(N)(=O)=O)c2)c(Sc2ccccc2)c1` [Compound 105], for which the negative logarithm of the IC50 (pIC50) was over 5.70.

With `COc1cc(C(C)(C)C)ccc1C(=O)Nc1cccc(S(N)(=O)=O)c1` [Compound 106], the negative logarithm of the IC50 (pIC50) is over 5.70.

Take `CC(C)(C)c1ccc(C(=O)Nc2cccc(S(N)(=O)=O)c2)c(Oc2ccc(F)cc2F)c1` [Compound 107]: the pIC50 was over 5.70.

With `Cc1cc(F)ccc1Oc1cc(C(C)(C)C)ccc1C(=O)Nc1cccc(S(N)(=O)=O)c1` [Compound 108], the negative-log IC50 (pIC50) is over 5.70.

Regarding `Cc1ccc(Oc2cc(C(C)(C)C)ccc2C(=O)Nc2cccc(S(N)(=O)=O)c2)c(C)c1` [Compound 109], the pIC50 is over 5.70.

On to `CC(C)(C)c1ccc(C(=O)Nc2cccc(S(N)(=O)=O)c2)c([S+]([O-])c2ccccc2)c1` (stereo not drawn) [Compound 110, 4-tert-Butyl-2-(phenylsulfinyl)-N-(3-sulfamoylphenyl)benzamide], for which the negative logarithm of the IC50 (pIC50) was 5.00 to 5.70.

As to `CC(C)(C)c1ccc(C(=O)Nc2cccc(S(N)(=O)=O)c2)c(Oc2ccccc2C#N)c1` [Compound 111], the pIC50 was 5.00 to 5.70.

As to `CC(C)(C)c1ccc(C(=O)Nc2cccc(S(N)(=O)=O)c2)c(S(=O)(=O)c2ccccc2)c1` [Compound 112, 4-tert-Butyl-2-(phenylsulfonyl)-N-(3-sulfamoylphenyl)benzamide], the pIC50 was 5.00 to 5.70.

Regarding `CC(C)(C)c1ccc(C(=O)Nc2cccc(S(N)(=O)=O)c2)c(Oc2ccc(Cl)cc2Cl)c1` [Compound 113], the negative logarithm of the IC50 (pIC50) was over 5.70.

`Cc1ncccc1Oc1cc(C(C)(C)C)ccc1C(=O)Nc1cccc(S(N)(=O)=O)c1` [Compound 114]: the pIC50 is over 5.70.

As for `CC(C)(C)c1ccc(C(=O)Nc2cccc(S(N)(=O)=O)c2)c(Oc2ccc(C(F)(F)F)nc2)c1` [Compound 115], the negative logarithm of the IC50 (pIC50) is over 5.70.

The record behind these values is patent US8841483B2, “Compositions useful as inhibitors of voltage-gated sodium channels” (Vertex Pharmaceuticals Incorporated, priority 2006, dated 2014).
